Data reported in patent US20190070163A1, “ANTITUMOR AGENT” (TOCHIGI INSTITUTE OF CLINICAL PATHOLOGY, priority 2013, published 2019).

Tested on: spontaneously developed mammary gland tumors (adenocarcinoma and adenoma)
Assay: Therapeutic effect on tumor-bearing rats; light and electron microscopy of removed tumor tissues
Type: in vivo, Sprague-Dawley rats
Conditions: for apoptosis of smooth muscle cells in the tumor site: electron micrographs FIGS. 12 to 15; for degeneration of axons of peripheral nerve cells in the tumor site / degeneration of myelin sheaths of peripheral nerve cells in the tumor site: electron micrographs FIGS. 16 to 19; for stage of apoptosis of endothelial cells (irregular condensation and fragmentation of nuclei): staging per Ihara et al. 1998; for apoptosis in the tumor cells / inhibitory effect on the development and the growth of the tumor cells: tumor-bearing rats, oral daily (montelukast sodium 0.16, zafirlukast 1.33, pranlukast hydrate 7.5, zileuton 34.3 mg/kg), vs untreated
Text: Sprague-Dawley rats which had spontaneously developed a tumor during breeding (hereinafter referred to as tumor-bearing rats) were purchased from Charles River Japan, Inc., and used for experiments. Tumors observed were all mammary gland tumors (adenocarcinoma and adenoma). All of these were spontaneous tumors, and the rats were cancer-bearing animals having various conditions of tumorigenesis including carcinogenic factors in mammals including human.
Under ether anesthetization, tumor tissues were removed from tumor-bearing rats. The removed tumors were fixed, and thereafter samples for light microscopy (hematoxylin-eosin staining) and samples for electron microscopy (uranium-lead double staining) were prepared and observed.
To tumor-bearing rats, a leukotriene inhibitor containing montelukast sodium as an active ingredient (leukotriene receptor antagonist; trade name “Singulair Tablets”; manufactured by MSD K. K.) was orally administered for up to 7 days at a daily dose of 0.16 mg/kg body weight in terms of montelukast sodium. On Day 3 and Day 7, tumor tissues were removed under ether anesthetization. In the same manner as in Comparative Example 1, the removed tumors were fixed, and thereafter samples for light microscopy (hematoxylin-eosin staining) and samples for electron microscopy (uranium-lead double staining) were prepared and observed.
To tumor-bearing rats, a leukotriene inhibitor containing zafirlukast as an active ingredient (leukotriene receptor antagonist; trade name “Accolate”; manufactured by AstraZeneca K. K.) was orally administered for up to 7 days at a daily dose of 1.33 mg/kg body weight in terms of zafirlukast. On Day 3 and Day 7, tumor tissues were removed under ether anesthetization. In the same manner as in Comparative Example 1, the removed tumors were fixed, and thereafter samples for light microscopy (hematoxylin-eosin staining) and samples for electron microscopy (uranium-lead double staining) were prepared and observed.
To tumor-bearing rats, a leukotriene inhibitor containing pranlukast hydrate as an active ingredient (leukotriene receptor antagonist; trade name “Onon”; manufactured by Ono Pharmaceutical Co., Ltd.) was orally administered for up to 7 days at a daily dose of 7.5 mg/kg body weight in terms of pranlukast hydrate. On Day 3 and Day 7, tumor tissues were removed under ether anesthetization. In the same manner as in Comparative Example 1, the removed tumors were fixed, and thereafter samples for light microscopy (hematoxylin-eosin staining) and samples for electron microscopy (uranium-lead double staining) were prepared and observed.
To tumor-bearing rats, a leukotriene inhibitor containing zileuton as an active ingredient (leukotriene biosynthesis inhibitor; trade name “ZYFLO”; manufactured by Abbott Laboratories) was orally administered for up to 7 days at a daily dose of 34.3 mg/kg body weight in terms of zileuton. On Day 3 and Day 7, tumor tissues were removed under ether anesthetization. In the same manner as in Comparative Example 1, the removed tumors were fixed, and thereafter samples for light microscopy (hematoxylin-eosin staining) and samples for electron microscopy (uranium-lead double staining) were prepared and observed.

[1] = oral, dosing period 3 days, electron micrographs

Row | Compound | effect to inhibit stromal hyperplasia (oral, dosing period 3 days) | apoptosis of smooth muscle cells in the tumor site (oral, dosing period 3 days) | degeneration of axons of peripheral nerve cells in the tumor site (oral, dosing period 3 days) | degeneration of myelin sheaths of peripheral nerve cells in the tumor site (oral, dosing period 3 days) | stage of apoptosis of endothelial cells (irregular condensation and fragmentation of nuclei) [1] | apoptosis in the tumor cells | inhibitory effect on the development and the growth of the tumor cells | apoptosis of fibroblasts in tumor tissue [1]
1 | CC(c1cc2ccccc2s1)N(O)C(N)=O (centres unmarked) [zileuton] | an effect to inhibit stromal hyperplasia was also seen | apoptosis of a smooth muscle cell | vacuolation and degeneration of an axon | degeneration of a myelin sheath | Stage II to III | apoptosis was already induced on as early as Day 3 | remarkable inhibitory effect | 
2 | COc1cc(C(=O)NS(=O)(=O)c2ccccc2C)ccc1Cc1cn(C)c2ccc(NC(=O)OC3CCCC3)cc12 [zafirlukast] |  | apoptosis of a smooth muscle cell | vacuolation and degeneration of an axon | degeneration of a myelin sheath | Stage II to III | apoptosis was already induced on as early as Day 3 | remarkable inhibitory effect | apoptosis of fibroblast
